This assay deals with rat PCA. In words: Passive cutaneous anaphylaxis (PCA) in rats. In kind it is in vivo. The note with it: iv, PBS with NaHCO3, time 0 mins before antigen challenge. The protocol:
Serum containing heat labile homocytotropic antibody was raised in rats to crystallised ovalbumin (Grade 3 Sigma) by the Method of I.Mota (Immunology 7, 681 (1964)) using Bordetella pertussis vaccine ([…] Burroughs Welcome) as adjuvant.
Passive cutaneous anaphylaxis (PCA) was carried out by a method based on that of Ovary and Bier, (Proc. Soc. Exp. Bio. Med., 81, 584 (1952)) as modified by Goose and Blair (Immunology, 16, 749 (1969)) Male Sprague Dawley rats 230-340 gm were given 0.1 ml of each of six two fold serial dilutions of pooled antiserum in 0.9% saline (Polyfusor Boots) injected intradermally into separate sites on their shaved backs. 72 hours later the rats were challenged by intravenous injection of 0.3 ml of a 1% solution of ovalbumin in isotonic saline buffered with 0.05M, pH 7.2 Sorenson'Buffer (Bactohaemagglutination buffer Difco Laboratories), mixed with 0,2 ml of a 5% solution of Pontamine Sky Blue (6 BX C.l. 24410 Raymond A Lamb) in isotonic saline. The rats were killed after 20 minutes and the diameter of the blue wheals at the antibody injection sites was measured on the outer surface of the skin. The starting dilution of the serum was adjusted so that there was no response, after challenge, at the injection site of the highest dilution and a maximum response at the lowest dilutions. Typically, six twofold serial dilutions of the serum from 1/4 to 1/128 were used.
Compounds were tested for their ability to reduce the diameter of the wheals at those intradermal sites which in control animals gave less than maximum response. Each dose of the compounds was administered to six rats at a measured time prior to intravenous challenge with ovalbumin. Control groups of six rats were given the same volume (0.2 ml: 100g-^1) of carrier fluid at the same time prior to the challenge.
The results were calculated as follows: % inhibition of PCA = 100 (1 - a/b) where a = the sum of the diameters of the wheals produced in the test animal at the sites of antibody dilutions as used in control groups and b = the mean sum of the diameters of the wheals produced in the control group of animals at those antibody sites where at least five out of six of the animals gave less than maximum response. A typical variation in the control group of animals was SEM± 6%.

We go through 12 compounds from patent EP0097468A2, “Thio-naphthotriazoles, methods for producing them and their use in treating allergic diseases” (BEECHAM GROUP PLC, priority 1982, dated 1984).

SMILES strings stand for the structures.

Broadly, the inhibition in vivo is the relative decrease from the control value, in per cent. A low value points to a weak effect.

`CSc1cccc2c1C(=O)c1nn[nH]c1C2=O` [Example 1, 4,9-Dihydro-4,9-dioxo-5-methylthio-lH-naphtho [2,-3-d]-v-triazole] had an inhibition in vivo at 0.25 mg/kg of 23%, an inhibition in vivo at 0.5 mg/kg of 35% and an inhibition in vivo at 1 mg/kg of 68%.

In turn, `CCSc1cccc2c1C(=O)c1nn[nH]c1C2=O` [Example 2, 4,9-Dihydro-4,9-dioxo-5-ethylthio-1H-naphtho[2,3-d]-v-triazole] displayed an inhibition in vivo at 0.125 mg/kg of 31%, an inhibition in vivo at 0.25 mg/kg of 27% and an inhibition in vivo at 0.5 mg/kg of 40%.

Regarding `C[S+]([O-])c1cccc2c1C(=O)c1nn[nH]c1C2=O` (stereo not shown) [Example 3, 4,9-Dihydro-4,9-dioxo-5-methylsulphinyl-lH-naphtho-[2,3-d]-v-triazole], testing at 0.125 mg/kg gave an inhibition in vivo of 56%, 0.25 mg/kg produced 79% inhibition in vivo and the inhibition in vivo at 0.5 mg/kg is 84%. Further, where the note is “0.0625 mg/kg”, the inhibition in vivo at 0.0625 mg/kg came to 35%.

In turn, `CS(=O)(=O)c1cccc2c1C(=O)c1nn[nH]c1C2=O` [Example 4, 4,9-Dihydro-4,9-dioxo-5-methylsulphonyl-lH-naphtho-[2,3-d]-v-triazole] returned an inhibition in vivo at 1 mg/kg of 44% and an inhibition in vivo at 10 mg/kg of 88%.

The compound `CC[S+]([O-])c1cccc2c1C(=O)c1nn[nH]c1C2=O` (stereo not shown) [Example 5, 4,9-dihydro-4,9-dioxo-5-ethysulphinyl-1H-naphtho[2,3-d]-v-triazole] gave an inhibition in vivo at 0.1 mg/kg of 65% and an inhibition in vivo at 0.5 mg/kg of 39%.

Consider `CCS(=O)(=O)c1cccc2c1C(=O)c1nn[nH]c1C2=O` [Example 6, 4,9-Dihydro-4,9-dioxo-5-ethylsulphonyl-lH-naphtho[2,3-dl-v-triazole], for which the inhibition in vivo at 1 mg/kg came out at 39% and at 10 mg/kg the inhibition in vivo was 82%.

The compound `CCCSc1cccc2c1C(=O)c1nn[nH]c1C2=O` [Example 7, 4,9-Dihyciro-4,9-dioxo-5-propylthio-1H-naphtho[2,3-d]-y-triazole] came in with an inhibition in vivo at 0.5 mg/kg of 68% and an inhibition in vivo at 5 mg/kg of 88%.

`CCC[S+]([O-])c1cccc2c1C(=O)c1nn[nH]c1C2=O` (stereo not shown) [Example 8, 4,9-Dihydro-4,9-dioxo-5-propylsulphinyl-1H-naphtho[2,3-d] -v-triazole] gave an inhibition in vivo at 0.1 mg/kg of 74% and an inhibition in vivo at 0.5 mg/kg of 88%.

For the compound `CCCS(=O)(=O)c1cccc2c1C(=O)c1nn[nH]c1C2=O` [Example 9, 4,9-Dihydro-4,9-dioxo-5-propylsulphonyl-1H-naphtho[2,3-d] -v-triazole], testing at 1 mg/kg gave an inhibition in vivo of 51% and the inhibition in vivo at 10 mg/kg came to 87%.

As to `CSc1c(C)c(C)cc2c1C(=O)c1nn[nH]c1C2=O` [Example 10, 6,7-Dimethyl-4,9-dihydro-4,9-dioxo-5-methylthio-1H-naphtho[2,3-d]-v-triazole], 0.5 mg/kg produced 71% inhibition in vivo and testing at 5 mg/kg gave an inhibition in vivo of 94%.

In turn, `Cc1cc2c(c([S+](C)[O-])c1C)C(=O)c1nn[nH]c1C2=O` (stereo not shown) [Example 11, 6,7-Dimethyl-4,9-dihydro-4,9-dioxo-5-methylsulphinyl-1H-naphtho [2,3-d]-v-triazole] gave an inhibition in vivo at 0.1 mg/kg of 50% and an inhibition in vivo at 0.5 mg/kg of 88%.

Regarding `Cc1cc2c(c(S(C)(=O)=O)c1C)C(=O)c1nn[nH]c1C2=O` [Example 12, 6,7-Dimethyl-4,9-dihydro-4,9-dioxo-5-methylsulphonyl-1H-na^phtho [2,3-d]-v-triazole], testing at 1 mg/kg gave an inhibition in vivo of 92% and the inhibition in vivo at 10 mg/kg was found to be 92%.
